Measured values reported in patent US8394856B2, “(-)-Hydroxycitric acid for controlling inflammation” (Glykon Technologies Group, LLC, priority 2002, dated 2013).

How the values were obtained:
[1] = treated rats; Roche researchers (Sullivan and Triscari 1976); cited from earlier work
[2] = literature (Sullivan and Gruen 1985); cited from earlier work
C-reactive protein = C-reactive protein in serum of rats fed a 30% fat, approximately 20% simple sugar diet; type: in vivo; conditions: salt approximately 76 mg/day
Description: (§1) To test the properties of HCA in various forms under conditions similar to those found in human clinical trials, the inventor arranged for rats to be fed a diet in which 30% of the calories were obtained from fat under standard conditions, with a further approximately 20% of the calories being supplied as simple sugars. Such a dietary combination of fat and simple sugars is noted as promoting a variety of metabolic imbalances and dysfunctions. The rats were intubated twice daily with one of five HCA salts or placebo. On weekends, the HCA was added to the food at an approprate dosage. The amount of HCA in each arm of 8 animals was based on the minimum dosage which had been found effective in the form of the pure trisodium salt of HCA in tests by Hoffmann-La Roche in animals ingesting a 70% glucose diet, i.e., 0.33 mmoles/kg body weight HCA given twice per day. […]
Tests were performed for C-reactive protein. […] Optical Density (OD) readings in the test kit used were 1 unit equals 50 picograms/mL. […]

[3] = Body weight in the same rat study; type: in vivo, rats; conditions: week 6; data not shown
Description: as §1, with “day. The HCA salts used were these: KCaHCA=a mixed potassium and calcium or double metal HCA salt commercially marketed as being entirely water soluble and of relatively high purity; KHCA=a relatively clean commercial potassium salt of HCA with a good mineral ligand attachment supplying 4467 mg potassium/100 grams of material; KMgHCA=three different dosage levels of an experimental potassium and magnesium salt with special characteristics, but suspected of being relatively unstable when exposed to stomach acid.” for “day.”

Row | Structure (SMILES) | plasma levels of glucose, insulin, or free fatty acids relative to controls [1] | crossing of the blood-brain barrier [2] | absolute CRP readings at week 4 compared with initially (C-reactive protein) | Δ OD units after 4 wks (C-reactive protein) (C-reactive protein; intubated twice daily, serum, start to week 4, 1 OD unit equals 50 picograms/mL) [OD units] | body weight versus control [3]
1 | O=C(O)CC(O)(C(=O)O)C(O)C(=O)O (single isomer, unassigned; (-)) [HCA, (−)-Hydroxycitric acid] | no significant differences | does not cross the blood-brain barrier |  |  | 
2 | O=C([O-])CC(O)(C(=O)[O-])C(O)C(=O)[O-].[K+].[K+].[K+] (centres unmarked) [KHCA, potassium hydroxycitrate] |  |  | lower at week 4 than initially | −155 | greatest trend differences
